# Experimental data published in patent publication US20200131227A1, “POLYPEPTIDE WITH TUMOUR BINDING ACTIVITY” (RUPRECHT-KARLS-UNIVERSITÄT HEIDELBERG, priority 2017, published 2020).
# Where “and” joins values, the source holds several entries; their conditions need not be identical. Identical values can stand only once. *1 amine or outer side, *2 acyl side, *3 side chain or, on linkers, in order; H or OH if unused. Bridges are numbered along the chain shown (N, C = ends). Roman numbers before positions name the chains, in order. Where no end group is shown, it is not given here. [ ]: non-standard residue; d: D form. The star is where a group is joined. ξ: configuration not given here. DOTA = O=C(O)CN1CCN(CC(=O)O)CCN(CC(=O)*)CCN(CC(=O)O)CC1; 125I = iodine-125 label on tyrosine, [125I]*; X1 = O=C(CO/N=C/C(=O)[*:2])[*:1]; ξK = NCCCCC(N)C(=O)O; ξS = NC(CO)C(=O)O
# Columns and labels:
# HNO97 cells = assay: In vitro binding, kinetics, internalization and efflux on HNO97 cells; type: cell-based, human
# Experimental: (§1) For binding studies, 2.5×10^5 to 4×10^5 cells were seeded in 6-well plates and cultivated for 48 hours. Cells were incubated for 60 min with 1 mL serum-free medium containing the ^125I-labeled peptide (see above). For competition experiments, cells were simultaneously exposed to unlabeled (10^-4 M to 10^-10 M) and ^125I-labeled peptides. After three washing steps with PBS (pH 7.4) the cells were lysed with 0.5 mL of 0.3 M NaOH. Experiments concerning the internalization, kinetics and efflux were additionally performed with ^177Lu-DOTA-SFITGv6. To evaluate kinetics and efflux HNO97 cells were incubated for different time intervals (10 min to 480 min) and 60 min, respectively, with ^177Lu-DOTA-SFITGv6 and lysed as described. To continue with the efflux experiment radioactive medium was replaced by non-radioactive medium and cells were incubated again for 60 to 240 min before measuring radioactivity of the cell lysates and the medium. For internalization experiments the cells were exposed to ^177Lu-DOTA-SFITGv6 for different time intervals (10 to 240 min) at 37° C. and 4° C. After three washing steps with PBS the cells were incubated with 1 mL of glycine-HCl 50 mmol/L in PBS (pH 2.8) for 10 min at RT to remove the surface bound activity. Then, cells were washed with 3 mL of ice-cold PBS and lysed as described. Radioactivity was determined in a gamma counter and calculated as percentage of the applied dose per 1×10^6 cells. Experiments were performed three times, and three repetitions per independent experiment were acquired.
# (§2) For the assessment of the peptide binding capacity in vitro, 2.5-4×10^5 cells were seeded into 6-well plates and cultivated for 48 h. ^125I-labeled peptide resuspended in 1 mL serum-free medium was added and incubated for either 10 min or 60 min with or without different concentrations of unlabeled peptide (10^−4-10^−11 M). Afterwards, cell monolayers were washed three times with 1 mL phosphate-buffered saline (pH 7.4) to remove unbound peptide and the cells were harvested with 1.4 mL lysis buffer (0.3 M NaOH). To evaluate kinetic properties the cells were exposed to ^177Lu-DOTA-labeled peptides for 10, 30, 60, 120, and 240 min, respectively, and lysed as described. For the efflux experiments the cells were incubated with ^177Lu-DOTA-labeled peptides for 60 min. Thereafter, radioactive medium was replaced by non-radioactive medium and cell monolayers were incubated for additional 60, 120, and 240 min and afterwards lysed as described earlier. The internalization was assessed after exposure of the cells to ^177Lu-DOTA-labeled peptides for 10, 30, 60, 120, and 240 min at 37° C. Unspecifically bound peptide was removed from the surface by incubation with 1 M glycine-HCl solution (pH 2.2) for 10 min. The monolayer cell was rinsed with PBS and cells were lysed as described before. Radioactivity was determined in a y-counter and calculated as percentage of the applied dose per 1×10^6 cells. Experiments were performed three times, and three repetitions per independent experiment were acquired.
# HT29 cells = assay: In vitro binding on HT29 cells; type: cell-based, human; settings: 60 min; percent applied dose/10^6 cells
# Experimental: as §1, with “Then, cells were washed with 3 mL of ice-cold PBS and lysed as described.” left out, “Experiments were performed three times, and three repetitions per independent experiment were acquired.” left out
# HNO258 cells = assay: In vitro binding on HNO258 cells; type: cell-based, human; settings: 60 min; percent applied dose/10^6 cells
# Experimental: as §1, with “Then, cells were washed with 3 mL of ice-cold PBS and lysed as described.” left out, “Experiments were performed three times, and three repetitions per independent experiment were acquired.” left out
# HNO399 cells = assay: In vitro binding on HNO399 cells; type: cell-based, human; settings: 60 min; percent applied dose/10^6 cells
# Experimental: as §2, with “To evaluate kinetic properties the cells were exposed to ^177Lu-DOTA-labeled peptides for 10, 30, 60, 120, and 240 min, respectively, and lysed as described.” left out, “The internalization was assessed after exposure of the cells to ^177Lu-DOTA-labeled peptides for 10, 30, 60, 120, and 240 min at 37° C.” left out
# LUDLU-1 cells = assay: In vitro binding on LUDLU-1 cells; type: cell-based, human; settings: 60 min; percent applied dose/10^6 cells
# Experimental: as §1, with “Then, cells were washed with 3 mL of ice-cold PBS and lysed as described.” left out, “Experiments were performed three times, and three repetitions per independent experiment were acquired.” left out
# carcinoma cell lines = assay: In vitro binding of radiolabeled peptides to several carcinoma cell lines; type: cell-based, human; settings: for binding of ^125I-labeled peptide with unlabeled peptide as competitor: co-incubation with 10^-6 M unlabeled peptide, 60 min, all cell lines tested
# Experimental: as §1, §2
# UM-UC-5 cells = assay: In vitro binding on UM-UC-5 cells; type: cell-based, human; settings: 60 min; percent applied dose/10^6 cells
# Experimental: as §1, with “Then, cells were washed with 3 mL of ice-cold PBS and lysed as described.” left out, “Experiments were performed three times, and three repetitions per independent experiment were acquired.” left out
# HNO210 cells = assay: In vitro binding on HNO210 cells; type: cell-based, human; settings: 60 min; percent applied dose/10^6 cells
# Experimental: For binding studies, 2.5×10^5 to 4×10^5 cells were seeded in 6-well plates and cultivated for 48 hours. Cells were incubated for 60 min with 1 mL serum-free medium containing the ^125I-labeled peptide (see above). For competition experiments, cells were simultaneously exposed to unlabeled (10^-4 M to 10^-10 M) and ^125I-labeled peptides. After three washing steps with PBS (pH 7.4) the cells were lysed with 0.5 mL of 0.3 M NaOH. Experiments concerning the internalization, kinetics and efflux were additionally performed with ^177Lu-DOTA-SFITGv6. […] To continue with the efflux experiment radioactive medium was replaced by non-radioactive medium and cells were incubated again for 60 to 240 min before measuring radioactivity of the cell lysates and the medium. […] Radioactivity was determined in a gamma counter and calculated as percentage of the applied dose per 1×10^6 cells. […]
# For the assessment of the peptide binding capacity in vitro, 2.5-4×10^5 cells were seeded into 6-well plates and cultivated for 48 h. ^125I-labeled peptide resuspended in 1 mL serum-free medium was added and incubated for either 10 min or 60 min with or without different concentrations of unlabeled peptide (10^−4-10^−11 M). […] The internalization was assessed after exposure of the cells to ^177Lu-DOTA-labeled peptides for 10, 30, 60, 120, and 240 min at 37° C. […]
# [1] = Serum stability assay (radio-HPLC); type: in vitro ADME, human
# Experimental: Five MBq of the purified ^131I-radiolabeled peptide was incubated in 300 μL human serum at 37° C. After different time intervals (15 min to 24 hours) 20 μL serum was precipitated with 40 μL acetonitrile. The stability of the labeled peptide in the supernatant was monitored by radio-HPLC at selected time points using a chromolith performance RP18ec column (3 mm×100 mm) equipped with a gamma detector (Packard COBRA™ Auto-Gamma, GMI). Separation condition was a gradient of 0% to 60% aqueous acetonitrile supplemented with 0.1% TFA over 10 min with a flow rate of 2 mL/min.
# MCF-7 cells = assay: In vitro binding on MCF-7 cells; type: cell-based, human; settings: 60 min; percent applied dose/10^6 cells
# Experimental: as §1, with “Then, cells were washed with 3 mL of ice-cold PBS and lysed as described.” left out, “Experiments were performed three times, and three repetitions per independent experiment were acquired.” left out
IC50 (Capan-2 cells),Substance,"retention of radioactivity in cells (efflux experiment) (HNO97 cells; 240 min after termination of the uptake (1 h exposure), of originally accumulated activity)",maximal uptake of ^125I-labeled peptide (kinetics) (HNO97 cells; after exposure for 60 min),internalization of ^125I-labeled peptide after decrease (HNO97 cells; decrease following the 60 min maximum),maximal internalization of ^125I-labeled peptide (HNO97 cells; within 60 min),binding of ^125I-labeled peptide (HT29 cells),binding of ^125I-labeled peptide (HNO258 cells),binding of ^125I-labeled peptide (HNO399 cells),binding of ^125I-labeled peptide (LUDLU-1 cells),"competition of binding by non-radioactively labeled counterpart (carcinoma cell lines; 10^−6 M competitor, all tested HNSCC cell lines)",competition of binding by unlabeled analog (carcinoma cell lines; 10^−6 M unlabeled analog),"average specific binding of ^125I-labeled peptide (carcinoma cell lines; HNO97, other HNSCC, lung, bladder and colon carcinoma cell lines)",binding of ^125I-labeled peptide with unlabeled peptide as competitor (carcinoma cell lines),binding of ^125I-labeled peptide (UM-UC-5 cells),binding of ^125I-labeled peptide (HNO210 cells),proteolytic stability in human serum [1],maximal uptake of ^125I-labeled peptide (kinetics) (HNO97 cells; after exposure for 120 min),uptake of ^125I-labeled peptide after decrease (kinetics) (HNO97 cells; decrease following the 120 min maximum),binding of ^125I-labeled peptide (MCF-7 cells)
0.76 nM,"I: GRCTGRGDLGRLCYPD-NH2 / II: GRCTGRGDLGRLCYPD-NH2 / III: GRCTGRGDLGRLCYPD-NH2 / IV: {DOTA}-G[ξS]G[ξS][ξK]G[ξS]G[ξS][ξK]G[ξS]G[ξS][ξK]-NH2 (disulfide I:3-I:13, II:3-II:13, III:3-III:13; linker I:N-IV:15, II:N-IV:10, III:N-IV:5 via X1) [^125I-DOTA-SFLAP3-trimer]",–,–,–,–,–,–,–,–,–,–,–,–,–,–,–,–,–,–
–,^125I-SFITGv6: ^125I-labeled SFITGv6 (GRCTFRGDLMQLCY(125I)PD; disulfide 3-13),less than 5%,37.3%,12.6%,up to 24.1%,2.8%,3.5%,9.8%,4.3%,almost completely competed,more than 90%,7%,below 1 % of the applied dose,10.4%,7.1% and 10.5%,no degradation over a 24 hours,–,–,–
–,^125I-SFPF-10: ^125I-labeled peptide SFPF-10 (GRCTFRGDKMQLCY(125I)PD; disulfide 3-13 (inferred)),–,–,–,–,–,2.6%,–,–,–,–,–,below 1 % of the applied dose,7.5%,–,–,12.6%,6.7%,1.6%
